Test results from PMC12062220, “Unveiling the role of Ndrg1 gene on the oxidative stress induction behind the anticancer potential of styrylquinazoline derivatives” (Scientific Reports, 2025).

Assays:
Experiment in all cases: ADP-Glo kinase assay (Promega), % inhibition at […]
Assay type in all cases: biochemical
[1] = molecular target: T1, HER2 (Homo sapiens, UniProt P04626)
T1 construct: gene ERBB2

[2] = molecular target: insulin-like growth factor 1 receptor (IGF1R) (Homo sapiens, UniProt P08069)
Sequence of insulin-like growth factor 1 receptor (IGF1R) (P08069 31-736): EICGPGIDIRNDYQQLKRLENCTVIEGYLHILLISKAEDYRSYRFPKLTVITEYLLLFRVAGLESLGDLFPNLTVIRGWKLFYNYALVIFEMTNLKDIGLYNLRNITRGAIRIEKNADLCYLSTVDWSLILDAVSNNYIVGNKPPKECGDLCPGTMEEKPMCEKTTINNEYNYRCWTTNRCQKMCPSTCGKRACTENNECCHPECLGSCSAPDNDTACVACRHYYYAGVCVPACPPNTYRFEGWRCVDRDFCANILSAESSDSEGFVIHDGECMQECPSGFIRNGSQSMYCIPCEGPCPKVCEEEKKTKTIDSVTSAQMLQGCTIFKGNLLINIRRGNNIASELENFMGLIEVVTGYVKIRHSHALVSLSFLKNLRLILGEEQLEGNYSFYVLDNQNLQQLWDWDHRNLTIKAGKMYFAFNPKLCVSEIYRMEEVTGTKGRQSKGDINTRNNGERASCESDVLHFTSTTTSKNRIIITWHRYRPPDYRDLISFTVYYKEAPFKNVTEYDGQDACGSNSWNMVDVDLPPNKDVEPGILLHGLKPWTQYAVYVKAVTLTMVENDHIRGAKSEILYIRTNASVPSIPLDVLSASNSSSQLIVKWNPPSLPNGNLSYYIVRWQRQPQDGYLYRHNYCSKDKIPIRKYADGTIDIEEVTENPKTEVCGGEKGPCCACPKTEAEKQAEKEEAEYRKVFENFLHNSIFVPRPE
Sequence of insulin-like growth factor 1 receptor (IGF1R) (P08069 741-1367): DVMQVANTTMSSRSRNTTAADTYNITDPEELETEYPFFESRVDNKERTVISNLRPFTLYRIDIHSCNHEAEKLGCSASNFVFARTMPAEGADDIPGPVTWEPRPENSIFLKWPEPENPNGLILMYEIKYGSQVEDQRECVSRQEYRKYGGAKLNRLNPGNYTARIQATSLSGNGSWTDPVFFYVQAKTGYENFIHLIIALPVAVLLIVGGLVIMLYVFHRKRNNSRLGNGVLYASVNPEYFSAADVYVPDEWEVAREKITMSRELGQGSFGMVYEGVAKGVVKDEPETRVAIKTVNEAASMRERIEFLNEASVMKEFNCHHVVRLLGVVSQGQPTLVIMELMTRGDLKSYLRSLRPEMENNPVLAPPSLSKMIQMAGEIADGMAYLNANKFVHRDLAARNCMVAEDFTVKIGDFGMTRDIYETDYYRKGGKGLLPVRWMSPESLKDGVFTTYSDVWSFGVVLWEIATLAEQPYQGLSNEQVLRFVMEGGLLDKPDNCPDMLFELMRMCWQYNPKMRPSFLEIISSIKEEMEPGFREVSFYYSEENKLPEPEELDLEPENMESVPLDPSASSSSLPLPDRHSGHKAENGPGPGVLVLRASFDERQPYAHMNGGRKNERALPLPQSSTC

[3] = molecular target: EGFR (Homo sapiens, UniProt P00533)
Sequence of EGFR (P00533 25-1210): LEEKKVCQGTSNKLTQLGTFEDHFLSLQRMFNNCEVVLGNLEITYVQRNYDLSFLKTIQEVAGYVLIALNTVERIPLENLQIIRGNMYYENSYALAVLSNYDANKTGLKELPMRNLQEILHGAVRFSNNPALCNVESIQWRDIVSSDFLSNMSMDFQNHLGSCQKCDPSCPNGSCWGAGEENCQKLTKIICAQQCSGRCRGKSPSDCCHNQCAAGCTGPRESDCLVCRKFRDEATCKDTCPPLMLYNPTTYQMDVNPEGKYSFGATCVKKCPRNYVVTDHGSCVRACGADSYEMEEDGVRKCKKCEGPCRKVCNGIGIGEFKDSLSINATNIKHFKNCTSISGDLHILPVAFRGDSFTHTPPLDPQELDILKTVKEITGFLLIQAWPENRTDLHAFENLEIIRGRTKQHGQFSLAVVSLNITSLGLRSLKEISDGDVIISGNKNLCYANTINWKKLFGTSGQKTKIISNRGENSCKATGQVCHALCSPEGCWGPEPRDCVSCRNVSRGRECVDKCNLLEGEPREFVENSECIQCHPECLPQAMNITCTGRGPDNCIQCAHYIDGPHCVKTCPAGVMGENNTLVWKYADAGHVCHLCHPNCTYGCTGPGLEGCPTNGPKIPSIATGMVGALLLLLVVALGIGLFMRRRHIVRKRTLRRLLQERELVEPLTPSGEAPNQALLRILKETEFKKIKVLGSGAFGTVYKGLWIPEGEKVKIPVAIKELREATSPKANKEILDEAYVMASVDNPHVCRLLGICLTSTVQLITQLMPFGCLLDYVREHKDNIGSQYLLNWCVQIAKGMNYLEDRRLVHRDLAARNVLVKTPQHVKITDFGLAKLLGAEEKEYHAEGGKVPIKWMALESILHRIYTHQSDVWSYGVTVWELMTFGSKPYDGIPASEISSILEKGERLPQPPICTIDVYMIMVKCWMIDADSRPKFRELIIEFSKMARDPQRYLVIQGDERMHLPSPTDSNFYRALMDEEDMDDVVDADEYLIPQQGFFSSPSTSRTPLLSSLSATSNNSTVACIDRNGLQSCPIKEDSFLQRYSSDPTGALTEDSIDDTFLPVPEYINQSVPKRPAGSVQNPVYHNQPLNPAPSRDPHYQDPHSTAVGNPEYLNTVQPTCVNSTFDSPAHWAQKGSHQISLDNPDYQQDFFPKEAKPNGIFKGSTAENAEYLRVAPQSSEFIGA

T1 sequence (P04626 23-1255): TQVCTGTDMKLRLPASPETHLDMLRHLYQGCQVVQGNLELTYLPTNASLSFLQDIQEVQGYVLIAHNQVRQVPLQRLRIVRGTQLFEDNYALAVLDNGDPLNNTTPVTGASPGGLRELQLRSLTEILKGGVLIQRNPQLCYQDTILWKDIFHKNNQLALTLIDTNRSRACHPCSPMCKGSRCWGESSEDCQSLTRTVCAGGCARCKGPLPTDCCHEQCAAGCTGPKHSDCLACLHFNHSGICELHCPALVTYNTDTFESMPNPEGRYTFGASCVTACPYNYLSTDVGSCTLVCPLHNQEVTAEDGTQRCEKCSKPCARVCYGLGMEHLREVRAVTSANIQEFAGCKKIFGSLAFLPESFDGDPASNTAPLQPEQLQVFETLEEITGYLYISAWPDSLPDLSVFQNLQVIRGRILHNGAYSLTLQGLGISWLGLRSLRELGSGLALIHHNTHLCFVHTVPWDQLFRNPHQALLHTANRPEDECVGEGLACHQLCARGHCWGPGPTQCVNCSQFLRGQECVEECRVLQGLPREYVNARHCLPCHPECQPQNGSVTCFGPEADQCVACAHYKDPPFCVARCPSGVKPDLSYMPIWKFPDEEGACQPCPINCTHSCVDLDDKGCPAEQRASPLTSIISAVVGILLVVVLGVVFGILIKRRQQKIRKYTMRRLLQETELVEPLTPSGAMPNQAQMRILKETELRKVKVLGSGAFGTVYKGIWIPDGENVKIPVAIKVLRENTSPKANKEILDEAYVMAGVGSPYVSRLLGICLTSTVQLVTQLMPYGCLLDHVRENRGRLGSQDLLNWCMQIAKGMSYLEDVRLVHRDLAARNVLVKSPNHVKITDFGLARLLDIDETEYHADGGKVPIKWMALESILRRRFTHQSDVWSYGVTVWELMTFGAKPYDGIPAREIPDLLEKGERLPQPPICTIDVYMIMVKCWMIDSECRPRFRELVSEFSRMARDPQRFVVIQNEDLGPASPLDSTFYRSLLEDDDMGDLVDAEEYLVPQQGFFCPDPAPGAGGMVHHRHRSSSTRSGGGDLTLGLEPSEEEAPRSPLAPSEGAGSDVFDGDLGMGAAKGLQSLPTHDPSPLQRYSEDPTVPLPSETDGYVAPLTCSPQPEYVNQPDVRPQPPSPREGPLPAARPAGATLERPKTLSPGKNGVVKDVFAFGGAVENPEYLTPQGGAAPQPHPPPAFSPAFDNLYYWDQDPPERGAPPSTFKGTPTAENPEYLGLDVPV

COc1ccccc1/C=C/c1nc(Nc2ccc3c(c2)OCO3)c2ccccc2n1 [IS20, N-(1,3-benzodioxol-5-yl)-2-[(E)-2-(2-methoxyphenyl)vinyl] quinazolin-4-amine]
inhibition at 1 µM [1]: 25 to 30%
inhibition at 1 µM [2]: 40%
inhibition at 1 µM [3]: 25 to 30%
